Experimental data from patent US9302012B2, “Anti-bacterial siderophore-aminopenicillin conjugates” (University of Notre Dame Du Lac, priority 2012, dated 2016).
In brackets after ≈: the same amount, converted by molar mass. Read-outs that look alike come from different tables or passages of the source.

Tests used:
[1] = tested on: P. aeruginosa K648 (pvd−, pch−); assay: Agar diffusion antibacterial susceptibility assay; assay type: cell-based, Pseudomonas aeruginosa; settings: for zone of inhibition at 200 µM / zone of inhibition at 100 µM: Pseudomonas aeruginosa, 24 h, read-out: Diameter of growth inhibition zones, P. aeruginosa K648 (pvd−, pch−), 37° C., 24 hours; for zone of inhibition at 200 µM: 50 μL of 0.2 mM solution; for zone of inhibition at 100 µM: 50 μL of 0.1 mM solution; for activity against K648 strain (agar diffusion, in words): iron-rich medium
Procedure: (§1) All liquids and media were sterilized by autoclaving (121° C., 15 min) before use. All aqueous solutions and media were prepared using distilled, deionized, and filtered water (Millipore Milli-Q Advantage A10 Water Purification System). Luria broth (LB) was purchased from VWR. Mueller-Hinton No. 2 broth (MHII broth; cation adjusted) was purchased from Sigma-Aldrich (St. Louis, Mo.). Iron-deficient (—Fe) MHII broth was prepared by adding 0.8 mL of a 1 mg/mL sterile aq. solution of 2,2′-bipyridine to 49.2 mL of MHII broth. Iron-rich (+Fe) MHII broth was prepared by adding 0.8 mL of a 1 mg/mL sterile aq. solution of FeCl3 to 49.2 mL of MHII broth. Mueller-Hinton No. 2 agar (MHII agar; HiMedia Laboratories) was purchased from VWR. Iron-deficient (−Fe) MHII agar was prepared by adding 0.5 mL of a 1 mg/mL sterile aq. solution of 2,2′-bipyridine to 34 mL of melted MHII agar with gentle mixing. Iron-rich (+Fe) MHII agar was prepared by adding 0.5 mL of a 1 mg/mL sterile aq. solution of FeCl3 to 34 mL of melted MHII agar with gentle mixing. See also Wencewicz, T. A. Dissertation, University of Notre Dame, Notre Dame, Ind., 2011, for relevant techniques.
(§2) Antibacterial Susceptibility Testing by the Agar Diffusion Assay.
(§3) Antibacterial activity of the compounds was determined by a modified Kirby-Bauer agar diffusion assay. Overnight cultures of test organisms were grown in LB broth for 18-24 h and standard suspensions of […] were prepared in saline solution (0.9% NaCl) according to a 0.5 BaSO4 McFarland Standard. This standardized suspension (0.1 mL) was added to 34 mL of sterile, melted agar (−Fe or +Fe) tempered to 47-50° C. After gentle mixing, the inoculated agar media was poured into a sterile plastic petri dish (145 mm×20 mm) and allowed to solidify near a flame with the lid ajar for about 30 min. Wells of 9.0 mm diameter were cut from the petri dish agar and filled with exactly 50 μL of the test sample solution. The petri dish was incubated at 37° C. for 18-24 h and the inhibition zone diameters were measured (mm) with an electronic caliper after 24 h.

P. aeruginosa KW799/wt = assay: Agar diffusion antibacterial susceptibility assay; assay type: cell-based, Pseudomonas aeruginosa; settings: 37° C.; for zone of inhibition at 200 µM / zone of inhibition at 100 µM: Pseudomonas aeruginosa, KW799/WT, 24 h, read-out: Diameter of growth inhibition zones; for zone of inhibition at 200 µM / Diameter of growth inhibition zones: 50 μL of 0.2 mM solution; for Diameter of growth inhibition zones: 24 hours; for zone of inhibition at 100 µM: 50 μL of 0.1 mM solution
Procedure: as §1, §2, §3

P. aeruginosa Pa6 = assay: Agar diffusion antibacterial susceptibility assay; assay type: cell-based, Pseudomonas aeruginosa; settings: for Diameter of growth inhibition zones: −Fe agar; for activity against clinical isolate Pa6 (agar diffusion, in words): even under iron-deficient conditions
Procedure: as §1, §2, §3

E. coli ATCC 25922 = assay: MIC90 by broth microdilution assay; assay type: cell-based, Escherichia coli; settings: for MIC90: Escherichia coli, ATCC25922, 20 h, E. coli ATCC 25922, 37° C., 20 h
Procedure: ^aMIC90 values (μM) were determined using the broth microdilution method in Mueller-Hinton broth No. 2 (MHII) with visual end point analysis according to the CLSI guidelines (Methods for Dilution Antimicrobial Susceptibility Tests for Bacteria that Grow Aerobically, 8th ed. (Villanova, Pa., USA), Clinical and Laboratory Standards Institute (CLSI), 2009, approved standard document M07-A7). ^bEach compound was tested in triplicate.
as §1
Determination of MIC90 Values by the Broth Microdilution Assay.
Antibacterial activity of the compounds was determined by measuring their minimum inhibitory concentrations (MIC90's) using the broth microdilution method according to the Clinical and Laboratory Standards Institute (CLSI, formerly the NCCLS) guidelines. Each well of a 96-well microtiter plate was filled with 50 μL of sterile broth media (−Fe or +Fe). Each test compound was dissolved in DMSO making a 20 mM solution, and then diluted with sterile broth media (−Fe or +Fe) to 400 or 800 μM. Exactly 50 μL of the compound solution was added to the first well of the microtiter plate and 2-fold serial dilutions were made down each row of the plate. Exactly 50 μL of bacterial inoculum (5×10^5 CFU/mL in broth media) was then added to each well giving a total volume of 100 μL/well. The plate was incubated at 37° C. for 20 h and then each well was examined for bacterial growth. The MIC90 was recorded as the lowest compound concentration (μM) required to inhibit 90% of bacterial growth as judged by turbidity of the culture media relative to a row of wells filled with a DMSO standard.

[2] = tested on: collection of strains of P. aeruginosa; assay: Agar well diffusion test (several strains); assay type: cell-based, Pseudomonas aeruginosa; settings: KW799/wt, PAO1, Pa4, and Pa6; Table 1
Procedure: Conjugates 10 and 11 were first evaluated for their antibacterial ability against a collection of strains of P. aeruginosa using the agar well diffusion test. The influence of iron concentration on antibacterial activity was probed as well by conducting assays in iron-rich and iron-deficient media.
as §1, §2, §3

[3] = tested on: E. coli H1443 (fepA+, cir+, fiu+); assay: Agar diffusion antibacterial susceptibility assay; assay type: cell-based; settings: Escherichia coli, 24 h, 37° C., read-out: Diameter of growth inhibition zones; for zone of inhibition at 100 µM: 50 μL of 0.1 mM solution; for zone of inhibition at 200 µM: 50 μL of 0.2 mM solution
Procedure: as §1, §2, §3

[4] = P. aeruginosa Pa6, 50 μL of 0.2 mM solution, 37° C., 24 hours
[5] = Pseudomonas aeruginosa, P. aeruginosa Pa6, +Fe agar, 50 μL of 0.2 mM solution, 37° C., 24 hours, read-out: Diameter of growth inhibition zones
[6] = −Fe (iron-deficient) MHII broth

SMILES | zone of inhibition at 200 µM ([1]; +Fe agar) | zone of inhibition at 200 µM ([1]; −Fe agar) | zone of inhibition at 200 µM (P. aeruginosa KW799/wt; +Fe agar) | Diameter of growth inhibition zones (P. aeruginosa KW799/wt; −Fe agar) | Diameter of growth inhibition zones (P. aeruginosa Pa6; [4]) | zone of inhibition at 200 µM (P. aeruginosa Pa6; [5]) | MIC90 (E. coli ATCC 25922; +Fe (iron-rich) MHII broth) | MIC90 (E. coli ATCC 25922; [6]) | activity against wild type strains of P. aeruginosa (agar diffusion, in words) [2] | activity against K648 strain (agar diffusion, in words) [1] | activity against clinical isolate Pa6 (agar diffusion, in words) (P. aeruginosa Pa6) | further results
CC1(C)S[C@@H]2[C@H](NC(=O)[C@H](N)c3ccc(O)cc3)C(=O)N2[C@H]1C(=O)O [Amoxicillin, reference compound] | 0 mm | 0 mm | 27 mm | 18p | 0 mm | 0 mm | 4.17 µM (≈ 1.52 µg/mL) | 4.17 µM (≈ 1.52 µg/mL) | inactive or only weakly active | – | – | –
CC1(C)S[C@@H]2[C@H](NC(=O)[C@H](N)c3ccccc3)C(=O)N2[C@H]1C(=O)O [Ampicillin, reference compound] | 0 mm | 0 mm | – | 23p | 0 mm | 0 mm | 16.7 µM (≈ 5.84 µg/mL) | 12.5 µM (≈ 4.37 µg/mL) | inactive or only weakly active | – | – | –
CC(=O)Oc1cccc(C(=O)NCCCC(CCCNC(=O)c2cccc(OC(C)=O)c2OC(C)=O)(CCCNC(=O)c2cccc(OC(C)=O)c2OC(C)=O)NC(=O)CCC(=O)NC(C(=O)NC2C(=O)N3C2SC(C)(C)C3C(=O)O)c2ccccc2)c1OC(C)=O (stereo not shown) [Compound 10] | – | – | – | – | – | – | 150 µM (≈ 194 µg/mL) | 1.56 µM (≈ 2.02 µg/mL) | – | inactive | no activity | zone of inhibition at 100 µM ([1]; +Fe agar): 0 mm; zone of inhibition at 100 µM ([1]; −Fe agar): 15 mm; zone of inhibition at 100 µM (P. aeruginosa KW799/wt; +Fe agar): 20 mm; zone of inhibition at 100 µM (P. aeruginosa KW799/wt; −Fe agar): 24 mm; Diameter of growth inhibition zones (P. aeruginosa Pa6; P. aeruginosa Pa6, 50 μL of 0.1 mM solution, 37° C., 24 hours): 0 mm; zone of inhibition at 100 µM (P. aeruginosa Pa6; Pseudomonas aeruginosa, P. aeruginosa Pa6, +Fe agar, 50 μL of 0.1 mM solution, 37° C., 24 hours, read-out: Diameter of growth inhibition zones): 0 mm; zone of inhibition at 100 µM ([3]; +Fe agar): 0 mm; zone of inhibition at 100 µM ([3]; −Fe agar): 19 mm; increase in activity against E. coli relative to ampicillin (E. coli ATCC 25922; MIC compared with parent drug): 8 fold
CC(=O)Oc1cccc(C(=O)NCCCC(CCCNC(=O)c2cccc(OC(C)=O)c2OC(C)=O)(CCCNC(=O)c2cccc(OC(C)=O)c2OC(C)=O)NC(=O)CCC(=O)NC(C(=O)NC2C(=O)N3C2SC(C)(C)C3C(=O)O)c2ccc(O)cc2)c1OC(C)=O (stereo not shown) [Compound 11] | 0 mm | 17 mm | 25 mm | – | 0 mm | 0 mm | 100 µM (≈ 131 µg/mL) | 6.25 µM (≈ 8.19 µg/mL) | – | inactive | no activity | zone of inhibition at 200 µM (P. aeruginosa KW799/wt; −Fe agar): 26 mm; zone of inhibition at 200 µM ([3]; +Fe agar): 0 mm; zone of inhibition at 200 µM ([3]; −Fe agar): 21 mm; potency against E. coli relative to amoxicillin (in words) (E. coli ATCC 25922; MIC compared with parent drug): almost as equipotent as amoxicillin
